How the values were obtained:
HCT 116 Xenograft Tumors = experiment: HCT 116 cell line xenograft: DOXIL given 16 hr prior to Compound B-2 CoX (PO), 2 weekly cycles; tumor growth (studies of Tables 4-9); format: in vivo, nu/nu nude mice; conditions: Table 5 study; 100 mg/kg Compound B-2 CoX qd×4 alone
Method: (§1) Statistical significance was defined as P<0.05.
Effect of Compound B-2 CoX Schedule in Combination with DOXIL® in HCT 116 Xenograft Tumors: The HCT 116 xenograft tumor model was selected for further examination of the effect of schedule and dose of Compound B-2 CoX in combination with DOXIL®. In this study, the effect of dosing Compound B-2 CoX qd for 2, 3, and 4 days following DOXIL® was examined.
Dose Response of DOXIL® alone and Dose Response of Compound B-2 CoX in Combination with 6 mg/kg DOXIL® in HCT 116 Xenograft Tumors: Additional investigations were conducted to determine the dose response of DOXIL® alone (1.5-6 mg/kg) in the HCT 116 xenograft tumor model. Further, a dose response of Compound B-2 CoX (25-100 mg/kg) in combination with 6 mg/kg DOXIL® was also assessed. Lastly, the efficacy of 1.5 mg/kg DOXIL® in combination with 200 mg/kg Compound B-2 CoX was also examined.
Result of reexamination of Compound B-2 CoX Dose and Schedule in Combination with DOXIL® in an HCT 116 Xenograft Mouse Model.
Examination of the Effect of Compound B-2 CoX Dose in Combination with 3 mg/kg DOXIL® in an HCT 116 Xenograft Tumor Model: A 3 mg/kg DOXIL® dose was examined in combination with a range of doses of Compound B-2 CoX (50-200 mg/kg) to identify the response of HCT 116 xenograft tumors to these combinations. […]

OVCAR-3 Xenograft Tumors = experiment: OVCAR-3 cell line xenograft: DOXIL given 16 hr prior to Compound B-2 CoX (PO); tumor growth; format: in vivo, nu/nu nude mice; conditions: 100 mg/kg Compound B-2 CoX qd×2 alone
From the text: as §1

[1] = system: pKAP1 and pH2AX levels in DU4475 breast cancer cells; experiment: pKAP1 and pH2AX immunoblot, Compound B-2 and doxorubicin in DU4475 breast cancer cells; format: cell-based, human; conditions: doxorubicin alone, 100 nM or 500 nM; from 4-8 h, elevated up to 24 h at 500 nM only
Method: (§2) Materials and Methods. The human cancer cell lines A549 (CCL-185), DU4475 (HTB-123), MDA-MB-436 (HTB-130), and MDA-MB-468 (HTB-132) were obtained from American Type Culture Collection (ATCC; Manassas, VA). A 10 mM stock solution of Compound B-1 or Compound B-2 was prepared in DMSO and stored at −20° C. Etoposide and doxorubicin were purchased from Sigma-Aldrich (St. Louis, MO).
(§3) The A549 human lung cancer cell line was purchased from ATCC and was cultured in DMEM supplemented with 10% fetal bovine serum, 1× non-essential amino acids and 1× Penicillin/Streptomycin (complete medium). Cells were maintained at a subconfluent state by passaging every 2-3 days. Human breast cancer cells lines DU4475, MDA-MB-436, and MDA-MB-468 were purchased from ATCC and cultured in DMEM supplemented with 10% fetal bovine serum, 1× Glutamax and Penicillin/Streptomycin. Cells were maintained at a subconfluent state by passaging every 2-3 days.
(§4) Compound B-1 and Compound B-2 used in these experiments were not prepared as a co-crystals.
(§5) Breast cancer cell lines grown in 24-well (Costar, catalog #3526) or 6-well (Costar, catalog #3516) tissue culture plates to 70-80% confluence were pre-incubated with 1 μM Compound B-2 or DMSO for 15 min. Doxorubicin was added to a final concentration of either 100 nM or 500 nM from a 1000× stock prepared in DMSO. Cells were then incubated for the indicated amount of time and harvested for analysis.
Cell Lysis and Western Blot Analysis. Cells treated with Compound B-1 or Compound B-2 in combination with chemotherapeutic agents were washed once with ice-cold PBS and then dissolved in 150 μL/well 2×SDS-PAGE sample buffer, transferred to microfuge tubes, and heated in a 105° C. heat block for 5 min for immunoblotting. A 15-μL aliquot of each SDS-PAGE sample was loaded onto 12-lane 4 20% Tris-Glycine gels and the gels were run at 125v constant voltage until the dye front reached the bottom (approximately 2 h). Following electrophoresis, separated proteins in the gels were transferred to a nitrocellulose membrane. Transfer was carried out for 2 h at 1.5 A constant current in a cold room using a Hoefer transfer apparatus (Model TE42 or TE62, Hoefer Inc, Holliston, MA) according to manufacturer's instructions. Following transfer, nitrocellulose membranes were incubated with blocking buffer for 1 h at room temperature. The nitrocellulose membranes were cut and the bottom halves were incubated overnight with 2 primary antibodies, anti-pH2AX (1/1000) and anti-total H2AX (1/1000). After washing, the appropriate fluorescently labeled secondary antibodies were added to the membranes and then imaged with pH2AX on the 800 (green) channel and total H2AX on the 700 (red) channel. The top halves of the membranes were probed sequentially for pKAP1 (1/1000) on the 700 (red) channel and then probed for total KAP1 (1/1000) and GAPDH (1/2500) on the 800 (green) channel. Image acquisition was conducted using an Odyssey fluorescent imaging system (Li-Cor Biosciences; Lincoln, NE).
Compound B-2 and doxorubicin combination in breast cancer cell lines in culture. To examine the effect of DNA-PK inhibition on pKAP1 and pH2AX in vitro, DU4475 breast cancer cells were pre-incubated with 1 μM Compound B-2 for 15 min, followed by addition of 100 nM or 500 nM doxorubicin. Cells were harvested at various time points following doxorubicin addition and analyzed for levels of pKAP1 and pH2AX by immunoblotting.

[2] = system: pKAP1 and pH2AX levels in MDA-MB-436 and MDA-MB-468 breast cancer cells; experiment: pKAP1 and pH2AX immunoblot, Compound B-2 and doxorubicin in MDA-MB-436 and MDA-MB-468 cells; format: cell-based, human; conditions: 500 nM doxorubicin alone; at 4 h, remained elevated to 8 h
Method: as §2, §3, §4, §5
Cell Lysis and Western Blot Analysis. […]
To determine that enhancement of DNA damage by concurrent treatment of cells with Compound B-2 and doxorubicin was not specific to DU4475 cells, two additional breast cancer cell lines, MDA-MB-436 and MDA-MB-468, were also pre-incubated with 1 μM Compound B-2 for 15 min, followed by addition of 500 nM doxorubicin. Cells were harvested at various time points following doxorubicin addition and analyzed for levels of pKAP1 and pH2AX by immunoblotting.

| SMILES | % T/C (Day 19) (HCT 116 Xenograft Tumors) [%] | % T/C (Day 43) (OVCAR-3 Xenograft Tumors) [%] | pKAP1 and pH2AX level [1] | pKAP1 and pH2AX level [2] |
| --- | --- | --- | --- | --- |
| [2H]c1nc(C)nc([2H])c1-c1cc(NC[C@@H](C)c2cccc3c(C(=O)NC)ccnc23)ncn1 [Compound B-2 CoX] | 106 | 83.2 | – | – |
| COc1cccc2c1C(=O)c1c(O)c3c(c(O)c1C2=O)C[C@@](O)(C(=O)CO)C[C@@H]3O[C@H]1C[C@H](N)[C@H](O)[C@H](C)O1 [Doxorubicin, reference compound] | – | – | increased level | increased level |

From patent US11980633B2, “Method for treating cancer using a combination of DNA-damaging agents and DNA-PK inhibitors” (Vertex Pharmaceuticals Incorporated, priority 2016, dated 2024)
